{"source": "patent US20040171089A1", "about": "“High-throughput screening assay for identifying substances capable of modulating cell survival and/or proliferation” (priority 2001, published 2004)", "key": {"[1]": {"test_system": "MDA MB 468 cells", "assay": "MTS cell viability/proliferation assay, MDA MB 468 cells", "assay_type": "cell-based, human", "conditions": "15 minute exposure then drug-free medium; at 48 hours; MTS", "protocol": "(§1) This was carried out using an MTS assay (reagents from Promega Corporation, Madison Wis., USA) which is a modification of the MTT assay (as described in Jacobson et al, 1994 EMBO J Vol 13 pp1899-1910). The assay depends on conversion of the MTS tetrazolium compound to a coloured formazan product in metabolically active cells; it is therefore an assay of viable cell number. A decline in values implies cell killing as long as cell disappearance by apoptosis in untreated cell populations is absent or negligible (as with most healthy primary cell populations).\n(§2) Cells were seeded in the range 1.5×10^5-1.8×10^5 cells per ml of culture medium in 96 well microtitre plates and allowed to attach in a humidifed atmosphere of 5% CO2 in air at 37 deg C. Drugs were added 18-24 hours later and cell viability/proliferation measured at time intervals up to 48-72 hours post-drug addition when the experiment was terminated. Mean (±SE) values at each time point were obtained from wells in triplicate.\n(§3) Cell viability was measured as follows: 20 μl of MTS solution (Promega) was added to wells and incubated at 37 deg C. for 3 hours during which time a coloured formazan product is generated in viable cells. […] Viable cell number was then measured by reading absorbance at 490 nm in a Dynex microtitre plate reader. […]"}, "[2]": {"test_system": "human primary microvascular endothelial cells", "assay": "Fura-2 calcium imaging, microvascular endothelial cells", "assay_type": "cell-based", "protocol": "Human adult dermal microvascular endothelial cells (catalogue number CC-2543; cells had been characterised by tests for cell type markers: positive for acetylated LDL uptake, positive for factor VIII related antigen, negative for alpha smooth muscle actin)\n(§4) For calcium imaging experiments cells were plated onto poly-L-lysine coated coverslips (13 mm). Single cell imaging was performed utilizing a MiraCal Imaging facility (Life Science Resources, Cambridge, U.K.) with a Nikon Diaphot-TMD inverted epifluorescence microscope equipped with a ×40 oil immersion objective and Sutter filter wheel. The imager was equipped with a Lambert intensifier 1187 (Life Sciences Resources) providing a ×30 enhancement of the fluorescent signal, thus limiting phototoxicity.\n(§5) Fura-2 acetoxymethyl ester (fura-2 AM) incubations with the cells were performed at 37° C. in a medium containing (in mM): 120 NaCl, 3.5 KCl, 0.4 KH2PO4, 5 NaHCO3, 1.2 Na2SO4, 15 glucose, 1.2 MgCl2, 1 CaCl2, and 20 TES [N-tris(hydroxymethyl) methyl-2-aminoethane sulphonic acid] pH adjusted to 7.4 with NaOH. Typically cells were incubated in 3 μM fura-2 AM for 25 min., which permitted sufficient accumulation of free fura-2 in the cell cytoplasm. Cells were then illuminated alternately at 340 and 380 nm with the emitted 505 nm light being detected by a photomultiplier. Free fura emits maximally when excited at 380 nm, whilst the calcium bound fura has a maximal emission when excited at 340 nm. Thus the ratio of emission when alternately excited at 340/380 nm is a measure of the calcium concentration in equilibrium with the chelator. Changes of intracellular calcium were quantified as the percentage increase of the fluorescent ratio (determined at ˜505 nm) obtained by exciting the test cells alternatively at 340 nm (optimal for calcium bound dye) and 380 nm."}, "[3]": {"target": "sigma-1 sites (Homo sapiens, UniProt Q99720)", "sequence (Q99720 whole entry)": "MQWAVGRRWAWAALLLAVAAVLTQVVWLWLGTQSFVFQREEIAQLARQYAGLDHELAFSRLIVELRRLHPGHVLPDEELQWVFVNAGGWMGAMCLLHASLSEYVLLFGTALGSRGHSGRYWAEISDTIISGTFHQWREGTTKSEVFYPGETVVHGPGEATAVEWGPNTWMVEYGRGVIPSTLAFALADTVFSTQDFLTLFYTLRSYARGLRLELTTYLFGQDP", "conditions": "Whittemore et al 1997; read-out: inhibition constant for sigma-1 sites; cited from earlier work"}, "[4]": {"test_system": "human prostate epithelial cells", "assay": "Fura-2 calcium imaging, prostate epithelial cells", "assay_type": "cell-based", "protocol": "Human prostate epithelial cells (catalogue number CC-2555; stain positive for cytokeratin 8,13.)\nas §4\nas §5, with “Free fura emits maximally when excited at 380 nm, whilst the calcium bound fura has a maximal emission when excited at 340 nm. Thus the ratio of emission when alternately excited at 340/380 nm is a measure of the calcium concentration in equilibrium with the chelator.” left out"}, "[5]": {"test_system": "MDA MB 468 cells", "assay": "Fura-2 calcium imaging, MDA MB 468 cells", "assay_type": "cell-based, human", "conditions": "for % increase of cytosolic calcium / % increase of cytosolic calcium (peak 340/380 nm fura-2 ratio): MDA 468 cells", "protocol": "Human mammary carcinoma (MDA MB 468) cells were obtained from ATCC, Manassas, Va., USA; catalogue number HTB-132; cells were grown in accordance with the manufacturer's instructions.\nas §4, §5"}, "[6]": {"test_system": "adult dermal fibroblasts", "assay": "MTS cell viability/proliferation assay, adult dermal fibroblasts", "assay_type": "cell-based, human", "conditions": "1-10 μM", "protocol": "as §1, §2, §3"}, "[7]": {"conditions": "1-10 μM, microvascular endothelial cells"}}}
{"smiles": "N=C(Nc1ccc(I)cc1)NC1C2CC3CC(C2)CC1C3", "note": "(centres unmarked) [IPAG, 1-(4-iodophenyl)-3-(2-adamantyl)guanidine]", "values": [{"measurement": "viable cell number less than control values", "setting": "[1]", "result": "20-30%"}, {"measurement": "% increase of cytosolic calcium (peak 340/380 nm fura-2 ratio)", "setting": "[2]; 1 μM, microvascular endothelial cells", "result": "119±13", "unit": "%"}, {"measurement": "initial calcium rise above baseline, occurring within 1 minute", "setting": "[2]; 10 μM, 1 mM, 0.1 mM and nominally calcium free medium", "result": "> 100", "unit": "%"}, {"measurement": "% increase of cytosolic calcium (peak 340/380 nm fura-2 ratio)", "setting": "[2]; 10 μM, microvascular endothelial cells", "result": "293±14", "unit": "%"}, {"measurement": "time to evident increase of cytosolic calcium after drug application", "setting": "[2]; [7]", "result": "5 to 10", "unit": "s"}, {"measurement": "time to peak effect on cytosolic calcium", "setting": "[2]; [7]", "result": "≤ 3", "unit": "min"}, {"measurement": "Ki", "setting": "[3]", "result": "~2.8", "unit": "nM"}, {"measurement": "% increase of cytosolic calcium (peak 340/380 nm fura-2 ratio)", "setting": "[4]; 1 μM", "result": "10±5", "unit": "%"}, {"measurement": "% increase of cytosolic calcium (peak 340/380 nm fura-2 ratio)", "setting": "[4]; 10 μM", "result": "25±5", "unit": "%"}, {"measurement": "% increase of cytosolic calcium", "setting": "[5]; 1 μM, 100 μM extracellular calcium", "result": "40±14", "unit": "%"}, {"measurement": "% increase of cytosolic calcium", "setting": "[5]; 1 μM, 1 mM extracellular calcium (FIG. 3a experiment)", "result": "157±10", "unit": "%"}, {"measurement": "% increase of cytosolic calcium (peak 340/380 nm fura-2 ratio)", "setting": "[5]; 1 μM", "result": "54±7", "unit": "%"}, {"measurement": "% increase of cytosolic calcium", "setting": "[5]; 1 μM, absence of extracellular calcium", "result": "1±0.4", "unit": "%"}, {"measurement": "% increase of cytosolic calcium (peak 340/380 nm fura-2 ratio)", "setting": "[5]; 3 μM", "result": "112±8", "unit": "%"}, {"measurement": "% increase of cytosolic calcium", "setting": "[5]; 10 μM, 100 μM extracellular calcium", "result": "237±12", "unit": "%"}, {"measurement": "time of decline of intracellular calcium to baseline", "setting": "[5]; 10 μM, 0.1 mM extracellular calcium, MDA MB 468 cells", "result": "≤ 10", "unit": "min"}, {"measurement": "% increase of cytosolic calcium", "setting": "[5]; 10 μM, 1 mM extracellular calcium (FIG. 3a experiment)", "result": "230±12", "unit": "%"}, {"measurement": "time calcium elevation remains close to peak levels", "setting": "[5]; 10 μM, 1 mM extracellular calcium, MDA MB 468 cells", "result": "at least 30 minutes"}, {"measurement": "% increase of cytosolic calcium (peak 340/380 nm fura-2 ratio)", "setting": "[5]; 10 μM", "result": "125±7", "unit": "%"}, {"measurement": "time to peak effect on cytosolic calcium", "setting": "[5]; 10 μM, MDA MB 468 cells", "result": "≤ 5", "unit": "min"}, {"measurement": "% increase of cytosolic calcium", "setting": "[5]; 10 μM, absence of extracellular calcium", "result": "4±2", "unit": "%"}, {"measurement": "effect on cytosolic calcium levels (in words)", "setting": "[5]; MDA MB 468 cells, FIG. 2a: IPAG 1-10 μM, rimcazole 10-30 μM, (+)-SKF 10,047 10 μM, (+)-pentazocine 10-30 μM, ibogaine 10-50 μM", "result": "increase cytosolic calcium levels"}, {"measurement": "Cytotoxicity", "setting": "[6]", "result": "not cytotoxic"}]}
